Article PMC10582582 (Saudi Pharmaceutical Journal : SPJ, 2023)

Test system: WI-38
Assay: In vitro cytotoxicity against normal cell line WI-38
Assay type: cell-based
Details: Homo sapiens, WI-38, read-out: IC50 WI38

Compound | IC50 [µM]
CN1CCC2(CC1)C/C(=N\N=C\c1ccc(N(C)C)cc1)c1ccccc1O2 [Compound 4b, N,N-Dimethyl-4-((E)-{(E)-[1′-methylspiro(chroman-2,4′-piperidin)-4-ylidene]hydrazono}methyl)aniline] | 60.4 ± 3.7
CCN1CCC2(CC1)C/C(=N\N=C\c1ccc(N(C)C)cc1)c1ccccc1O2 [Compound 4c, 4-((E)-{(E)-[1′-Ethylspiro(chroman-2,4′-piperidin)-4-ylidene]hydrazono}methyl)-N,N-dimethylaniline] | 55.3 ± 3.3
CN(C)C/C=C/C(=O)Nc1cc2c(Nc3ccc(F)c(Cl)c3)ncnc2cc1O[C@H]1CCOC1 [Afatinib, reference compound] | 49.5 ± 2.5
CN1CCC2(CC1)C/C(=N\N=C\c1ccc(Cl)cc1)c1ccccc1O2 [Compound 4a, (E)-4-[(E)-(4-Chlorobenzylidene)hydrazono]-1′-methylspiro(chroman-2,4′-piperidine)] | 75.7 ± 4.3
CN1CCC2(CC1)C/C(=N\N=C\c1ccc(O)cc1)c1ccccc1O2 [Compound 4d, 4-((E)-{(E)-[1′-Methylspiro(chroman-2,4′-piperidin)-4-ylidene]hydrazono}methyl)phenol] | 33.3 ± 2.3
